Source: patent publication US20050142531A1, “Peptidically buffered formulations for electrotransport applications and methods of making” (priority 2003, published 2005)
Square brackets hold non-standard residues; d marks the D form. Peptide text beside a SMILES is read from it. Cit = NC(=O)NCCC[C@H](N)C(=O)O

Experiment: pKa, pI and % salt of peptidic buffers
Type: physicochemical
Conditions: for pI: Table 2; for % salt: fraction ionized with net charge in aqueous solution at pH equal to the pI

Row | Structure (SMILES) | pka A (acidic pKa) (Table 2, first acidic pKa) | pka B (basic pKa) (Table 2, first basic pKa) | pka B (basic pKa) (Table 2, second basic pKa) | pI | % salt [%] | pka B (basic pKa) (Table 2, third basic pKa) | pka A (acidic pKa) (Table 2, second acidic pKa) | pka A (acidic pKa) (Table 2, third acidic pKa)
1 | CSCC[C@H](N)C(=O)N[C@@H](Cc1c[nH]cn1)C(=O)O [Met-His] (H-Met-His-OH; N-terminus and C-terminus assumed) | 2.42 | 6.71 | 7.97 |  |  |  |  | 
2 | NCCC(=O)N[C@@H](Cc1cnc[nH]1)C(=O)O [Beta-Alanylhistidine] | 2.60 | 6.70 | 8.70 | 7.70 | 16 |  |  | 
3 | NC(=O)NCCC[C@H](N)C(=O)N[C@@H](Cc1c[nH]cn1)C(=O)O [Citrulline-His] (H-[Cit]-His-OH; N-terminus and C-terminus assumed) | 2.42 | 6.71 | 7.90 |  |  |  |  | 
4 | C[C@@H](O)[C@H](NC(=O)[C@@H](N)Cc1c[nH]cn1)C(=O)O [His-Thr] (H-His-Thr-OH; N-terminus and C-terminus assumed) | 2.98 | 6.10 | 7.80 |  |  |  |  | 
5 | N[C@@H](Cc1ccccc1)C(=O)N[C@@H](Cc1c[nH]cn1)C(=O)O [Phe-His] (H-Phe-His-OH; N-terminus and C-terminus assumed) | 2.42 | 6.71 | 7.70 |  |  |  |  | 
6 | NCC(O)CC[C@H](NC(=O)[C@@H](N)Cc1c[nH]cn1)C(=O)O (stereo partly drawn) [His-Hydroxylysine] | 3.05 | 6.10 | 7.80 |  |  | 9.70 |  | 
7 | N[C@@H](Cc1c[nH]cn1)C(=O)N1CCC[C@H]1C(=O)O [His-Pro] | 2.62 | 6.10 | 7.80 |  |  |  |  | 
8 | NCCC(=O)N[C@@H](Cc1cnc[nH]1)C(=O)O [Carnosine] | 2.64 | 6.83 | 9.51 | 8.17 | 8 |  |  | 
9 | N[C@@H](Cc1c[nH]cn1)C(=O)N[C@@H](Cc1ccccc1)C(=O)O [His-Phe] (H-His-Phe-OH; N-terminus and C-terminus assumed) | 2.88 | 6.10 | 7.80 |  |  |  |  | 
10 | NC(=O)NCCC[C@H](NC(=O)[C@@H](N)Cc1c[nH]cn1)C(=O)O [His-Citrulline] (H-His-[Cit]-OH; N-terminus and C-terminus assumed) | 3.05 | 6.10 | 7.80 |  |  |  |  | 
11 | NC(=O)C[C@H](N)C(=O)N[C@@H](Cc1c[nH]cn1)C(=O)O [Asn-His] (H-Asn-His-OH; N-terminus and C-terminus assumed) | 2.42 | 6.71 | 7.30 |  |  |  |  | 
12 | NCCCC[C@H](NC(=O)[C@@H](N)Cc1c[nH]cn1)C(=O)O [His-Lys] (H-His-Lys-OH; N-terminus and C-terminus assumed) | 3.05 | 6.10 | 7.80 |  |  | 11.00 |  | 
13 | N[C@@H](CO)C(=O)N[C@@H](Cc1c[nH]cn1)C(=O)O [Ser-His] (H-Ser-His-OH; N-terminus and C-terminus assumed) | 2.42 | 6.71 | 7.70 |  |  |  |  | 
14 | C[C@@H](O)[C@H](N)C(=O)N[C@@H](Cc1c[nH]cn1)C(=O)O [Thr-His] (H-Thr-His-OH; N-terminus and C-terminus assumed) | 2.42 | 6.71 | 7.60 |  |  |  |  | 
15 | NCCCC[C@H](N)C(=O)N[C@@H](Cc1c[nH]cn1)C(=O)O [Lys-His] | 2.42 | 6.71 | 8.00 |  |  | 11.00 |  | 
16 | N[C@@H](CC(=O)O)C(=O)N[C@@H](CC(=O)O)C(=O)O [Asp-Asp] (H-Asp-Asp-OH; N-terminus and C-terminus assumed) | 2.70 | 8.26 |  |  |  |  | 3.40 | 4.70
17 | N[C@@H](Cc1c[nH]cn1)C(=O)N[C@@H](Cc1ccc(O)cc1)C(=O)O [His-Tyr] (H-His-Tyr-OH; N-terminus and C-terminus assumed) | 2.13 | 6.10 | 7.80 |  |  |  | 9.97 | 
18 | NC(=O)CC[C@H](N)C(=O)N[C@@H](Cc1c[nH]cn1)C(=O)O [GIn-His] (H-Gln-His-OH; N-terminus and C-terminus assumed) | 2.42 | 6.71 | 7.70 |  |  |  |  | 
19 | N[C@@H](Cc1c[nH]c2ccccc12)C(=O)N[C@@H](Cc1c[nH]cn1)C(=O)O [Trp-His] (H-Trp-His-OH; N-terminus and C-terminus assumed) | 2.42 | 6.71 | 7.90 |  |  |  |  | 
20 | N[C@@H](Cc1c[nH]cn1)C(=O)N1CC(O)C[C@H]1C(=O)O (stereo partly drawn) [His-Hydroxyproline] | 2.42 | 6.10 | 7.80 |  |  |  |  | 
